Experiments:
human naïve CD8 T cells = assay: Metabolic flux analysis, glycolytic switch of naïve CD8 T cells; type: cell-based; conditions: anti-CD3 or anti-CD3/anti-CD28 Ab; 0 mM vs 1.2 mM Mg^2+
Protocol: (§1) FIG. 2: Extracellular magnesium promotes memory-specific activation via LFA-1. Glycolytic switch of human EM CD8 T cells (a) and naïve CD8 T cells (b) subsets upon injection of anti-CD3 Ab only, or anti-CD3 and anti-CD28 Ab, was assessed by metabolic flux analysis in medium containing either 1.2 mM Mg^2+, 0 mM Mg^2+, or medium which was reconstituted from 0 mM to 1.2 mM Mg^2+ immediately prior to activation (0→1.2 mM Mg^2+). (a) Results for human effector memory (EM) and (b) for human naïve CD8 T cells. Glycolytic switch was quantified by subtracting […] measurements. (c) Flow cytometric analysis of surface activation markers on human EM CD8 T cells 24 hours after activation by plate-bound anti-CD3 Ab and soluble anti-CD28 Ab, in 1.2 mM and 0 mM Mg^2+ media, respectively. (d) Abundance of inflammatory cytokines in corresponding EM CD8 T cell culture supernatants, determined by CBA. (e) CD11a (LFA-1) surface expression on human naïve and EM CD8 T cells as well PHA T cell blasts. Flow cytometry-based assessment of total LFA-1 expression assessed by mAb TS2/4 (f), closed conformation of αL by mAb HI111 (g), extended conformation of LFA-1 by mAb Kim127 (h), open head-piece conformation of LFA-1 by mAb m24 (i), phosphorylation of focal adhesion kinase (FAK) […] as well TNF expression (k)±TCR-induced activation in different extracellular Mg^2+ concentrations. […]

LFA-1 = molecular target: T1, LFA-1 (Homo sapiens, UniProt P05107+P20701); assay: Flow cytometry of LFA-1 open head-piece (mAb m24) on EM and naïve CD8 T cells; type: cell-based
T1 construct: endogenous in cells; host or cells: primary human T cells from healthy donors: PHA-induced T cell blasts, sorted EM and naive CD8 T cells, and NY-ESO-1 TCR-transduced REP T cells
T1 sequence (P20701 26-1170): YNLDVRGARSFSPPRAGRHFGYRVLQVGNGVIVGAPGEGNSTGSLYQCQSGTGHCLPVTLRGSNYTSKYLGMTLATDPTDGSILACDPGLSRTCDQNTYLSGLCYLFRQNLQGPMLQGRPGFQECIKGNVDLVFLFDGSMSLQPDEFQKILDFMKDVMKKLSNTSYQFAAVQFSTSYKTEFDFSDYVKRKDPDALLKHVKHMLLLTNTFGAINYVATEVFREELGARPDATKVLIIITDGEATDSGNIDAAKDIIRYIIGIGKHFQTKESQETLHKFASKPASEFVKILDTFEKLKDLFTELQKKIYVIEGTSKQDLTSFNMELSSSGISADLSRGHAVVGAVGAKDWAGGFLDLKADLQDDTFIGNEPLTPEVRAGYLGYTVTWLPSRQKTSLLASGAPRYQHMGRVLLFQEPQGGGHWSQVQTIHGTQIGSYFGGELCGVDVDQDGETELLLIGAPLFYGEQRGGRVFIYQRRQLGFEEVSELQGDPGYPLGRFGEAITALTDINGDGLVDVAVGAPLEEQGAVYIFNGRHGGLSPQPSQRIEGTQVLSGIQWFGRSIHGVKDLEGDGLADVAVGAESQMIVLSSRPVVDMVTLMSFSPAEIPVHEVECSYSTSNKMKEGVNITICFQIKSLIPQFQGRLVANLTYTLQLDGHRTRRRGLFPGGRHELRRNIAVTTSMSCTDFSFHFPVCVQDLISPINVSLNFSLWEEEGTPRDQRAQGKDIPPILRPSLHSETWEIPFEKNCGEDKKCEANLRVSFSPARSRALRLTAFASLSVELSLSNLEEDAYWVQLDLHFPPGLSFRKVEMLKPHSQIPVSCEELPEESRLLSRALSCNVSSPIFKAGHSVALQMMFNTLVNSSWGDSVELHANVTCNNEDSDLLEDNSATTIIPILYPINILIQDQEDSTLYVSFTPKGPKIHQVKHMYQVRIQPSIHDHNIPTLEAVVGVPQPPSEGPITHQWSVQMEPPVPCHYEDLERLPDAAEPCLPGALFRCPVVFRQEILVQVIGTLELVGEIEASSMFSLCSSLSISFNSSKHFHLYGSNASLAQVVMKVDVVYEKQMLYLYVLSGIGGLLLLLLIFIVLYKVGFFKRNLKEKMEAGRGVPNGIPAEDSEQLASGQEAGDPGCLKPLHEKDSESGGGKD
T1 sequence (P05107 23-769): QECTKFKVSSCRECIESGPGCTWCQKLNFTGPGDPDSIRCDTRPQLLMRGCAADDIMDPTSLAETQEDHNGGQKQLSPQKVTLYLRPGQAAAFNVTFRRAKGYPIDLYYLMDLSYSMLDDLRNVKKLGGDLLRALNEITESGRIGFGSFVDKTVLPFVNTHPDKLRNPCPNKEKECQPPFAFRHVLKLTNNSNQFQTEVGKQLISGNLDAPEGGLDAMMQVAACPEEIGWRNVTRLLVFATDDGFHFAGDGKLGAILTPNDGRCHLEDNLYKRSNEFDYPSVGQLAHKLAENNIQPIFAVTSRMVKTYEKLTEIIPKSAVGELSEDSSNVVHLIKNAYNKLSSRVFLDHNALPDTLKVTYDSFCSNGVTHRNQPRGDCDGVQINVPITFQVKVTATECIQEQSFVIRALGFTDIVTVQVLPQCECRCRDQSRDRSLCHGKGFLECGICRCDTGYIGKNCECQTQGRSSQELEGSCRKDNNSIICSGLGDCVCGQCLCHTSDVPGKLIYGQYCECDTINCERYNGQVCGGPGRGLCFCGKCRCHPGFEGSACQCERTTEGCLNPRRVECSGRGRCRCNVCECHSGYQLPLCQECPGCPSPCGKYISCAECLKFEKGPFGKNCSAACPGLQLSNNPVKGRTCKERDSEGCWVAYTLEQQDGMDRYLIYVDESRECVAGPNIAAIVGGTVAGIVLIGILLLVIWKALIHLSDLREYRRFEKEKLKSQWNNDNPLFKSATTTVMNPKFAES
Protocol: as §1

[Mg+2] [Mg^2+, Magnesium]
Glycolytic switch (ECAR) of naïve CD8 T cells (human naïve CD8 T cells): no impaired activation-induced upregulation of glycolysis | Activation induced LFA-1 head-piece opening (m24) on EM CD8 T cells (LFA-1; Mg^2+-restricted conditions vs Mg^2+): reduced activation induced LFA-1 head-piece opening | Activation induced LFA-1 head-piece opening (m24) on naïve CD8 T cells (LFA-1; moderate TCR stimulation, ±Mg^2+): did not induce LFA-1 head-piece opening
